Experimental data reported in PMC7155755, “Binding of the Human 14-3-3 Isoforms to Distinct Sites in the Leucine-Rich Repeat Kinase 2” (Frontiers in Neuroscience, 2020).
Square brackets hold non-standard residues; d marks the D form. Peptide text beside a SMILES is read from it. pS = N[C@@H](COP(=O)(O)O)C(=O)O

What was measured:
Assay in all cases: Fluorescence polarization (FP) direct binding assay
human 14-3-3 isoform β = target: T1, human 14-3-3 isoform β (Homo sapiens, UniProt P31946); details: fluorescein-labeled peptide 1 nM, 20 mM MOPS pH 7, 150 mM NaCl, 0.005% CHAPS, at least three independent measurements, read-out: Binding affinity (KD) toward 14-3-3 isoform β
T1 construct: MBP (cleaved yes); made in house; host or cells: E. coli BL21DE3
T1 sequence (P31946 whole entry, canonical isoform): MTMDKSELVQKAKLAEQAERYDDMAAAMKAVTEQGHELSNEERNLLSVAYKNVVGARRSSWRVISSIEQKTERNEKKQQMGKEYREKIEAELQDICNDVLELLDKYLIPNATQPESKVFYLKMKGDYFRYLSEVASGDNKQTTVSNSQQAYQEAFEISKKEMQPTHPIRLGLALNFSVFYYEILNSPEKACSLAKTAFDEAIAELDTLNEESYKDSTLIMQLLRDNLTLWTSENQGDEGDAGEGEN
Summary of the method: (§1)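 Untagged human 14-3-3 isoforms (MBP removed) titrated from ≥5 μM down to picomolar against 1 nM fluorescein-labeled LRRK2-derived peptides, phosphorylated or not, in 20 mM MOPS pH 7, 150 mM NaCl, 0.005% CHAPS. KD from sigmoidal fit of FP (mPol) versus log protein concentration; duplicates, ≥2 independent replicates.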

human 14-3-3 isoform ζ = target: T2, human 14-3-3 isoform ζ (Homo sapiens, UniProt P63104); details: fluorescein-labeled peptide 1 nM, 20 mM MOPS pH 7, 150 mM NaCl, 0.005% CHAPS, at least three independent measurements, read-out: Binding affinity (KD) toward 14-3-3 isoform ζ
T2 construct: MBP (cleaved yes); made in house; host or cells: E. coli BL21DE3
T2 sequence (P63104 whole entry, canonical isoform): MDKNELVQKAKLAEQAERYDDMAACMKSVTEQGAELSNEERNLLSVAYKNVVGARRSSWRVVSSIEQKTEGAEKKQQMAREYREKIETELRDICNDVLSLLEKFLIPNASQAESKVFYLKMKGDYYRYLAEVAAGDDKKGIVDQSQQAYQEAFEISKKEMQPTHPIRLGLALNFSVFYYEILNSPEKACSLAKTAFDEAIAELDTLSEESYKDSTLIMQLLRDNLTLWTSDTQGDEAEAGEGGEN
Summary of the method: as §1

human 14-3-3 isoform η = target: T3, human 14-3-3 isoform η (Homo sapiens, UniProt Q04917); details: fluorescein-labeled peptide 1 nM, 20 mM MOPS pH 7, 150 mM NaCl, 0.005% CHAPS, at least three independent measurements, read-out: Binding affinity (KD) toward 14-3-3 isoform η
T3 construct: MBP (cleaved yes); made in house; host or cells: E. coli BL21DE3
T3 sequence (Q04917 whole entry, canonical isoform): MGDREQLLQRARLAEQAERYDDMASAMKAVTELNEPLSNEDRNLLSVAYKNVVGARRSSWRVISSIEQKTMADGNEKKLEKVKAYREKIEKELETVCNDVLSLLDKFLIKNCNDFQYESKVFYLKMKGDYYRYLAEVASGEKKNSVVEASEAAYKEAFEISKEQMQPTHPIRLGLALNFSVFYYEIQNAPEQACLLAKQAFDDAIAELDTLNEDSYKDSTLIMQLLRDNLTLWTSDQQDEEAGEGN
Summary of the method: as §1

human 14-3-3 isoform θ = target: T4, human 14-3-3 isoform θ (Homo sapiens, UniProt P27348); details: fluorescein-labeled peptide 1 nM, 20 mM MOPS pH 7, 150 mM NaCl, 0.005% CHAPS, at least three independent measurements, read-out: Binding affinity (KD) toward 14-3-3 isoform θ
T4 construct: MBP (cleaved yes); made in house; host or cells: E. coli BL21DE3
T4 sequence (P27348 whole entry, canonical isoform): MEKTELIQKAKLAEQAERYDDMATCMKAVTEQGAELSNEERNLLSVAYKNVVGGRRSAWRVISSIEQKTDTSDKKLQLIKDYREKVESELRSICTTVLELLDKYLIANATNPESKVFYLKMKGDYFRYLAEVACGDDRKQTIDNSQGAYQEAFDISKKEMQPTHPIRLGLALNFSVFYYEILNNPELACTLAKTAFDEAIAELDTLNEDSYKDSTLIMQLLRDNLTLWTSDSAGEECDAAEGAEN
Summary of the method: as §1

human 14-3-3 isoform σ = target: T5, human 14-3-3 isoform σ (Homo sapiens, UniProt P31947); details: fluorescein-labeled peptide 1 nM, 20 mM MOPS pH 7, 150 mM NaCl, 0.005% CHAPS, at least three independent measurements, read-out: Binding affinity (KD) toward 14-3-3 isoform σ
T5 construct: MBP (cleaved yes); made in house; host or cells: E. coli BL21DE3
T5 sequence (P31947 1-248): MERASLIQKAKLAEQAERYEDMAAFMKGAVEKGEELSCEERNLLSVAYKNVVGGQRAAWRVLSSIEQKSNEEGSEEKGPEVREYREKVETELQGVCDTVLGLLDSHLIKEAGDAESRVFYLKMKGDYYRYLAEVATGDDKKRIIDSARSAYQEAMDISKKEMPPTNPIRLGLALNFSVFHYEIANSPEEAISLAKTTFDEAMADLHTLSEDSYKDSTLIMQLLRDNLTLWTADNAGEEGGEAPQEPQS
Summary of the method: as §1

human 14-3-3 isoform ϵ = target: T6, human 14-3-3 isoform ϵ (Homo sapiens, UniProt P62258); details: fluorescein-labeled peptide 1 nM, 20 mM MOPS pH 7, 150 mM NaCl, 0.005% CHAPS, bound given in μM, read-out: Binding affinity (KD) toward 14-3-3 isoform ϵ
T6 construct: MBP (cleaved yes); made in house; host or cells: E. coli BL21DE3
T6 sequence (P62258 1-255): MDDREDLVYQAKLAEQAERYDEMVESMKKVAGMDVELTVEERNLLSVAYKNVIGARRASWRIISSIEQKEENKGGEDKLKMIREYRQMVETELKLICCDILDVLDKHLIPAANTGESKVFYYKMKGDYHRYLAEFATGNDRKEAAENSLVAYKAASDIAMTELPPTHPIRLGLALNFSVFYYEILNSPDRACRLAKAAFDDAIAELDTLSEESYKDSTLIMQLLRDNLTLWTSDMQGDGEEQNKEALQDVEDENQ
Summary of the method: as §1

human 14-3-3γ = target: T7, human 14-3-3γ (Homo sapiens, UniProt P61981); details: fluorescein-labeled peptide 1 nM, 20 mM MOPS pH 7, 150 mM NaCl, 0.005% CHAPS, at least three independent measurements, read-out: Binding affinity (KD) toward 14-3-3 isoform γ
T7 construct: MBP (cleaved yes); made in house; host or cells: E. coli BL21DE3
T7 sequence (P61981 1-247): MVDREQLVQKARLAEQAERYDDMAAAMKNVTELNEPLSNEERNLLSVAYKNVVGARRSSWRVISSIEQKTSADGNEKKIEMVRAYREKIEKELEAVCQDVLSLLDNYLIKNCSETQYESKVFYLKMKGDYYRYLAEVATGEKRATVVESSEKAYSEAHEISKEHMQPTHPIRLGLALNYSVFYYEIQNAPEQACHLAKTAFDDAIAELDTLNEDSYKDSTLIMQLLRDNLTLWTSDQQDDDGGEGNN
Summary of the method: as §1

Kd (human 14-3-3 isoform β): 183 ± 25 nM | Kd (human 14-3-3 isoform ζ): 476 ± 165 nM | Kd (human 14-3-3 isoform η): 85 ± 10 nM | Kd (human 14-3-3 isoform θ): 195 ± 42 nM | Kd (human 14-3-3 isoform σ): 802 ± 261 nM | Kd (human 14-3-3 isoform ϵ): > 1 µM | Kd (human 14-3-3γ): 106 ± 4 nM
SMILES: CC[C@H](C)[C@H](NC(=O)[C@H](CC(N)=O)NC(=O)[C@H](Cc1ccccc1)NC(=O)[C@@H](N)CC(C)C)C(=O)N[C@@H](CCCCN)C(=O)N[C@@H](C)C(=O)N[C@@H](CCCNC(=N)N)C(=O)N[C@@H](C)C(=O)N[C@@H](CO)C(=O)N[C@@H](COP(=O)(O)O)C(=O)N[C@@H](CO)C(=O)N1CCC[C@H]1C(=O)N[C@H](C(=O)N[C@H](C(=O)N[C@@H](CC(C)C)C(=O)N[C@H](C(=O)NCC(=O)N[C@H](C(=O)O)[C@@H](C)O)C(C)C)[C@@H](C)CC)C(C)C [pS1444] (H-LFNIKARAS[pS]SPVILVGT-OH)
